# Active and inactive are the calls of the source.
# Tests used:
# [1] = microbe, parasite or virus in culture; assay type: functional; settings: Mycobacterium tuberculosis
# cells = assay type: functional
# [2] = THP-1 cell cytotoxicity, dose response, cytotoxicity control for non-replicating M. tuberculosis project (AID 489025); assay type: functional
# Wee1-like protein kinase = Wee1-like protein kinase (Homo sapiens, UniProt P30291); assay: Dose Response Cell-based Assay for Inhibitors of Wee1 Degradation. [Related pubchem assays: 1410, 1321 ]; assay type: functional
# INS1 = assay: beta cell apoptosis inhibitors, cytokine rescue, dose response, luminescence, retest (AID 449756); assay type: functional, cell-based; settings: Rattus norvegicus;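 also: cell death triggered by IL-1 beta plus TNF-alpha plus IFN-gamma mixture; protective hits raise ATP signal compared with cytokine alone wells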
# [3] = biological target: T1, Calpain-2 catalytic subunit (Sus scrofa, UniProt P43367); assay: pig calpain II inhibitor potency, dose response, biochemical, fluorogenic peptide substrate (AID 1420); assay type: functional
# T1 sequence (P43367 whole entry): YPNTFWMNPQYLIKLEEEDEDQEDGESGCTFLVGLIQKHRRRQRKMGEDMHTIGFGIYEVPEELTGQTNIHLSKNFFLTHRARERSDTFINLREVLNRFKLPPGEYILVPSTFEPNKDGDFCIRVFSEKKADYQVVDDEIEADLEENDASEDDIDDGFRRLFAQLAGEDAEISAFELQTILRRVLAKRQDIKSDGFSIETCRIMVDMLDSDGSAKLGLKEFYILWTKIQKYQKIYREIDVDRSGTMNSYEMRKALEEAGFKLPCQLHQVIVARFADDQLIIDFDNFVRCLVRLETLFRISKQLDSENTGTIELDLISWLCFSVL
# [4] = Vero E6 cell cytotoxicity, dose response, cytotoxicity control for non-replicating M. tuberculosis project, secondary assay (AID 492998); assay type: functional, VeroE6; settings: Vero C1008
# [5] = cytotoxicity in HPDE-C7 cells, cell-based, fluorescence, HTS (AID 430); assay type: functional; settings: Homo sapiens
# [6] = HepG2 cell cytotoxicity, dose response, cytotoxicity control for non-replicating M. tuberculosis project (AID 489018); assay type: functional; settings: Mycobacterium tuberculosis
# [7] = growth suppression of beta-catenin-knockout colon cells, dose response, cell-based, HCT116, human colon tumor (AID 1045); assay type: functional;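 also: HCT116 colon tumor cells with beta catenin knocked out; cells exposed to compound for 60 hours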
# [8] = growth suppression of PTEN-null colon cells, dose response, cell-based, HCT116 PTEN knockout (AID 1047); assay type: functional;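 also: HCT116 colon tumor cells with PTEN knocked out; cells exposed to compound for 60 hours before readout; potency for loss of cell viability measured by luminescence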
# [9] = cytotoxicity in KRAS-transformed pancreatic duct cells, primary screen, cell-based, fluorescence, HTS (AID 431); assay type: functional; settings: Homo sapiens;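 also: cell line used: HPDE-C7K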
# [10] = biological target: G2/mitotic-specific cyclin-B1 (Homo sapiens, UniProt P14635); assay: Counterscreen assay for inhibitors of Wee1 degradation: dose response cell-based assay to identify inhibitors of cyclin B degradation. [Related pubchem assays: 1410, 1321 ]; assay type: functional
# HEK293 [11] = assay: Cytotoxicity assay in HEK293 cells. [Related pubchem assays (depositor defined):AID1266, AID1269, AID1270, AID1271, AID1280, AID1281, AID1282, AID1283, AID1287, AID1289, AID1290, AID1291, AID1292, AID1293, AID1294, AID1295, AID1299, AID1302, AID1364, AID1365, AID1366, AID1367, AID1369, AID1370, AID1371, AID1372, AID1373, AID1374, AID1375, AID1384 …; assay type: functional, cell-based; settings: Homo sapiens
# [12] = biological target: T2, Heat shock factor protein 1 (Mus musculus, UniProt P38532); assay: inhibition of MG132-induced HSE-luciferase signal, confirmation, cell-based, NIH3T3, luminescence, dose retest (AID 2382); assay type: functional;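 also: NIH3T3 fibroblasts with HSF1-driven luciferase reporter stressed by proteasome inhibitor MG132; luminescence from HSF1-driven luciferase expression after 8 hours of MG132 stress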
# T2 sequence (P38532 whole entry): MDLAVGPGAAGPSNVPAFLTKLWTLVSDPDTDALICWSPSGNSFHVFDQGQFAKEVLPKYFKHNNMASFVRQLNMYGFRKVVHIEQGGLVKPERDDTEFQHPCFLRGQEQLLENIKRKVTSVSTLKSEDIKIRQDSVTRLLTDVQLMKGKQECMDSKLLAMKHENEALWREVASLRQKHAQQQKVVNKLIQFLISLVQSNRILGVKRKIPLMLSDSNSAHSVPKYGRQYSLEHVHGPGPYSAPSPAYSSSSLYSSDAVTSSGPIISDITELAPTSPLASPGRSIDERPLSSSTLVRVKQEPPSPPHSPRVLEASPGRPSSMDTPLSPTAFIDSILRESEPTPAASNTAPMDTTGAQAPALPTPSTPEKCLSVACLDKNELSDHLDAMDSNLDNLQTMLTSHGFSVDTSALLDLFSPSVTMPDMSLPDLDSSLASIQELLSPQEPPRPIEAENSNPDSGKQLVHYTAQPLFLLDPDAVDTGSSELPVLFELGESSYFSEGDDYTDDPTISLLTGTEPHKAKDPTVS
# [13] = biological target: T3, Microphthalmia-associated transcription factor (Homo sapiens, UniProt O75030); assay: TRPM1 promoter luciferase signal decrease, dose response, MITF inhibitor project, cell-based, SK-MEL-5, cherry-picked, set 3 (AID 493073); assay type: functional
# T3 sequence (O75030 whole entry): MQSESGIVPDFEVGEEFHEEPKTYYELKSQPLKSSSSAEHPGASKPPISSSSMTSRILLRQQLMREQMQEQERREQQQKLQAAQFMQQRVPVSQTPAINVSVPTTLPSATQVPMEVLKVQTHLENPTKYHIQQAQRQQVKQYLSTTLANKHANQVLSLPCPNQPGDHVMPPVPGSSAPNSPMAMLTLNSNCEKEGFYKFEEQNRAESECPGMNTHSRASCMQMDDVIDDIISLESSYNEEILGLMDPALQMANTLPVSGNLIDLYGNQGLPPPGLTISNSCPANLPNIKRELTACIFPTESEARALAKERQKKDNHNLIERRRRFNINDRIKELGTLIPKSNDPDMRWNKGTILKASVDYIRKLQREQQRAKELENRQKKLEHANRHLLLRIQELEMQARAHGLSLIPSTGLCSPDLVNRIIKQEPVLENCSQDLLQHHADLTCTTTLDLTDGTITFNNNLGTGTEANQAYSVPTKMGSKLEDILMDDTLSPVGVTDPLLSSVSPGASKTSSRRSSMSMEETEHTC
# [14] = Luminescence-based counterscreen assay for KLF5 inhibitors: dose response cell-based high throughput screening assay to identify cytotoxic compounds using the IEC-6 intestinal epithelial cell line. [Related pubchem assays: 1700 (Primary screen.), 1834 (Confirmation screen.), 1858 (Summary AID.), 1905 (Counterscreen.)]; assay type: functional
# [15] = inhibitors of firefly luciferase expression or activity, dose response, H4 neuroglioma cells, luminescence (AID 1990); assay type: functional, cell-based
# [16] = cytotoxicity in HEK-293T cells, dose response, cytotoxicity control for TCR NF-kB inhibitor project, luminescence, T-cell screen hits (AID 489026); assay type: functional, cell-based;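 also: cells exposed to compound about 14 hours before the viability readout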
# [17] = Luminescence Cell-Based Dose Response HTS to Identify Inhibitors of 5'UTR Stem-Loop Driven Prion Protein mRNA Translation in H4 Neuroglioblastoma Cells. [Related pubchem assays: 1827 (Project Summary), 1813 (Primary HTS)]; assay type: functional
# HEK293 [18] = assay: PMA/Ionomycin induced NF-kB luciferase assay in 293- NF-kB-Luc stable cells. [Related pubchem assays: 1299, 1270, 1295, 1375, 1287, 1281, 1293, 1291, 1289, 1280, 465, 1364, 1282, 1372, 1365, 1370, 1367, 1366, 1269, 1373, 1292, 1290, 1302, 1371, 1283, 1271, 1294, 1374, 1368, 1369 ]; assay type: functional, cell-based; settings: Homo sapiens
# [19] = biological target: Luciferin 4-monooxygenase (Photinus pyralis, UniProt P08659); assay: In vitro luciferase assay using purified luciferase. [Related pubchem assays: 1299, 1270, 1295, 1375, 1287, 1281, 1293, 1291, 1289, 1280, 465, 1364, 1282, 1372, 1365, 1370, 1367, 1366, 1266, 1373, 1292, 1290, 1302, 1371, 1283, 1271, 1294, 1374, 1368, 1369 ]
# [20] = biological target: T4, Eukaryotic translation initiation factor 2-alpha kinase 3 (Homo sapiens, UniProt Q9NZJ5); assay: Dose response cell-based high-throughput screening assay to measure PERK inhibition. [Related pubchem assays: 1416 ]; assay type: functional
# [21] = biological target: T4, Eukaryotic translation initiation factor 2-alpha kinase 3; assay: Counterscreen assay for PERK inhibitors: Dose response cell-based high throughput screening assay to measure inhibition of PERK at 6 hours. [Related pubchem assays: 1522, 1416 ]; assay type: functional
# [22] = biological target: Voltage-gated N-type calcium channel alpha-1B subunit/Amyloid beta A4 precursor protein-binding family A member 1 (Homo sapiens, UniProt Q00975+Q02410); assay: disruptors of Mint-PDZ/N-type channel peptide interaction – biochemical, HTRF, set 2, SAR follow-up (AID 434980); assay type: functional
# HEK293 [23] = assay: cells; settings: Homo sapiens
# [24] = biological target: Neuropeptide Y receptor type 1 (Homo sapiens, UniProt P25929); assay: Fluorescence-based counterscreen for agonists of NPY-Y2: cell-based high-throughput dose response assay for agonists of NPY-Y1.; assay type: functional
# Tumor necrosis factor = Tumor necrosis factor (Homo sapiens, UniProt P01375); assay: TNFa-triggered NF-kB activation inhibitors, SAR follow-up, cell-based, revised (AID 2337); assay type: functional
# [25] = insulin promoter down-regulators in MIN6 cells, imaging, high-content screening, mouse beta cells (AID 1628); assay type: functional
# [26] = biological target: Neuropeptide Y receptor type 2 (Homo sapiens, UniProt P49146); assay: Fluorescence-based cell-based high-throughput dose response assay for agonists of NPY-Y2. [Related pubchem assays: 1703 (Screening assay (CNGC inhibitors).), 1359 (Screening assay (NPY-Y2 potentiators or agonists).), 1304 (Screening assay (NPY-Y1 potentiators or agonists).), 1710 (Screening assay (NPY-Y2 agonists).), 1791 (Summary AID.)]; assay type: functional
# [27] = biological target: T5, Nucleotide-binding oligomerization domain-containing protein 1 (Homo sapiens, UniProt Q9Y239); assay: NOD1 signaling inhibitors, SAR follow-up, revised (AID 2333); assay type: functional
# T5 sequence (Q9Y239 whole entry): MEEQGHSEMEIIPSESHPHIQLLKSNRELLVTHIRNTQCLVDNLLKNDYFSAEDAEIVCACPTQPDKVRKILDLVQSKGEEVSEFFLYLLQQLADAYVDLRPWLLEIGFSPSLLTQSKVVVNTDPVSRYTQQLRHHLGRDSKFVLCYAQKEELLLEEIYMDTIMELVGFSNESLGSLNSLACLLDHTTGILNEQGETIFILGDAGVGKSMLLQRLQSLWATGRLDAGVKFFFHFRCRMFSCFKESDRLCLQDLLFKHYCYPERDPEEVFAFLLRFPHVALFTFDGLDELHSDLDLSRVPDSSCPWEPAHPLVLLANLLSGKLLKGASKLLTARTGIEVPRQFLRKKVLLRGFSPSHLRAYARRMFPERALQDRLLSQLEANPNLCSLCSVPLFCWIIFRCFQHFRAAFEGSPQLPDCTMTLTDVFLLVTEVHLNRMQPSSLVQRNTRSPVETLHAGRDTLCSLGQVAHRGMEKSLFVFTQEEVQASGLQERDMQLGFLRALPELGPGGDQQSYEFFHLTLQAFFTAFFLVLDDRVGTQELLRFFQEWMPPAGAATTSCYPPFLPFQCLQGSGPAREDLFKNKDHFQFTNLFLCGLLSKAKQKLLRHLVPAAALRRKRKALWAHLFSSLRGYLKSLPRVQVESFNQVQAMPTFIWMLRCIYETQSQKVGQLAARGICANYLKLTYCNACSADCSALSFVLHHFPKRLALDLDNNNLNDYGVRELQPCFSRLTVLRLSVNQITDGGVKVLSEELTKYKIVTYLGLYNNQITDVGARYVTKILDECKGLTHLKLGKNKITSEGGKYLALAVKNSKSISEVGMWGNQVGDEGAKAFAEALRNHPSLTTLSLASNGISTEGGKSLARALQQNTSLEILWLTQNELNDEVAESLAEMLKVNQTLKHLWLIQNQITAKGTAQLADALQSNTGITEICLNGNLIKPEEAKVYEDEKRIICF
# Vero = assay: cells; assay type: functional; settings: Chlorocebus sabaeus
# HEK293 [28] = assay: Fluorescence-based counterscreen for potentiators or agonists of NPY-Y2: cell-based high-throughput dose response assay to identify inhibitors of cyclic nucleotide gated ion channel (CNGC) activity. In this assay, the parental HEK293 cell line transfected with a cyclic-nucleotide gated ion channel (CNGC)-based cAMP sensor is used to measure inhibition of isoproterenol-induced CNGC activity by test compound.; assay type: functional; settings: Homo sapiens
# [29] = cytotoxicity in MIN6 insulinoma cells, dose response, cytotoxicity control, cell-based, mouse insulinoma (AID 2122); assay type: functional;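 also: confirmatory high-throughput counterscreen run to flag cytotoxic compounds; mouse MIN-6 beta cells carrying an insulin promoter eGFP reporter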
# T4 sequence (Q9NZJ5 whole entry): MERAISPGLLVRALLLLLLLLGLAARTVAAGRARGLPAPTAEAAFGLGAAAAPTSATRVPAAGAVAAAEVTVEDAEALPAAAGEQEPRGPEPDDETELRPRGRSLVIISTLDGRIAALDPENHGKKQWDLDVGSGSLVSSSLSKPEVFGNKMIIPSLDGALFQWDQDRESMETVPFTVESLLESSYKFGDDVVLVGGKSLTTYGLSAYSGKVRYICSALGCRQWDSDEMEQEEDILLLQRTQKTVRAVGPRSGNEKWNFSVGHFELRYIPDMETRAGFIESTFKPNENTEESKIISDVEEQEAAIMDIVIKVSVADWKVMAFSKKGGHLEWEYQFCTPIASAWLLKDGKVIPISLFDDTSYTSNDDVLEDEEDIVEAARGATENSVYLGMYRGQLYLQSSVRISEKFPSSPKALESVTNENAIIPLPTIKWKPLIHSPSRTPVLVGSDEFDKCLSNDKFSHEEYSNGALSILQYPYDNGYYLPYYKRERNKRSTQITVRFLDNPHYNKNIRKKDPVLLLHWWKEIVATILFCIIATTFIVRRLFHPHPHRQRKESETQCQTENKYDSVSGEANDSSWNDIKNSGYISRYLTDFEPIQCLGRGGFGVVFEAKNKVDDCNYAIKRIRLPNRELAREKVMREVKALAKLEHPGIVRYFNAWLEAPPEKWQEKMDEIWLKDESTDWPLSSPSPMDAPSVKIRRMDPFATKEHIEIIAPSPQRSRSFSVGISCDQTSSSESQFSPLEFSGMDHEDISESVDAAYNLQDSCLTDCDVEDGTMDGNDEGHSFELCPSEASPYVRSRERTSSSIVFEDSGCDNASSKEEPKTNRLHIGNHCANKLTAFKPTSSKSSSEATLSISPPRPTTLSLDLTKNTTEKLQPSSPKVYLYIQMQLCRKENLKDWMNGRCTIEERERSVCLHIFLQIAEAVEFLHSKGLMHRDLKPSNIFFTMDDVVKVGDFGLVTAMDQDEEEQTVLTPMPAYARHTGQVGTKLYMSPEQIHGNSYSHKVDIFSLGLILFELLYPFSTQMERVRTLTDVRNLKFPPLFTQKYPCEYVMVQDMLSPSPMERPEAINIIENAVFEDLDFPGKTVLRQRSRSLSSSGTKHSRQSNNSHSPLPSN
# Chain of Neuropeptide Y receptor type 1 (P25929 whole entry): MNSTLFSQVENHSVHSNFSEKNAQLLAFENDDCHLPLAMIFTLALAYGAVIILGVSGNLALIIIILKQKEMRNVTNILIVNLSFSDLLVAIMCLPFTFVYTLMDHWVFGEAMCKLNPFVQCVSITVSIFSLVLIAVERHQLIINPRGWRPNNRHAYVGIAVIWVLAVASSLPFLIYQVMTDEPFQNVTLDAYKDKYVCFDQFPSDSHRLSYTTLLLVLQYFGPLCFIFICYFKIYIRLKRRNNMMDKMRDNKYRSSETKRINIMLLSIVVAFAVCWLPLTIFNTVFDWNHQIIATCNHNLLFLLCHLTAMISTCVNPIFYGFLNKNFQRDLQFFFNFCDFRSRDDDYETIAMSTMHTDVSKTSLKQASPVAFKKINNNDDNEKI
# Chain of Neuropeptide Y receptor type 2 (P49146 whole entry, the tested form may be a part): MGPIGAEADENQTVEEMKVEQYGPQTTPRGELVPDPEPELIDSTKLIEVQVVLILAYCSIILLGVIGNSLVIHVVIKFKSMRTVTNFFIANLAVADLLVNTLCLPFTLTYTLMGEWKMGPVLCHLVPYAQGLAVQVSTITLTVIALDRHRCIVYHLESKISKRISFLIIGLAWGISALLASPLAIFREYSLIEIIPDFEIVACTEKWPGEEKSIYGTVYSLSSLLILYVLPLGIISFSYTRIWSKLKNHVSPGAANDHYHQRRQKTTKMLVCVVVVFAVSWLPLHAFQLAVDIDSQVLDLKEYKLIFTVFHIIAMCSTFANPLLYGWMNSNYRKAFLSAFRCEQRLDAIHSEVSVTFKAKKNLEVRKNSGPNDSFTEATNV
# Chain of Tumor necrosis factor (P01375 whole entry): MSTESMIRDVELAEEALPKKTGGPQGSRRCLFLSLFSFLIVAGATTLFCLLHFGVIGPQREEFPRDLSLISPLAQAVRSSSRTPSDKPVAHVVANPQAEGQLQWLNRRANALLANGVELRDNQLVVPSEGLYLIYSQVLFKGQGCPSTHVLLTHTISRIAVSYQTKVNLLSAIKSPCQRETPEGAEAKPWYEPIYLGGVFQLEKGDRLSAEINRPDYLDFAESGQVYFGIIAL
# Chain of Wee1-like protein kinase (P30291 whole entry): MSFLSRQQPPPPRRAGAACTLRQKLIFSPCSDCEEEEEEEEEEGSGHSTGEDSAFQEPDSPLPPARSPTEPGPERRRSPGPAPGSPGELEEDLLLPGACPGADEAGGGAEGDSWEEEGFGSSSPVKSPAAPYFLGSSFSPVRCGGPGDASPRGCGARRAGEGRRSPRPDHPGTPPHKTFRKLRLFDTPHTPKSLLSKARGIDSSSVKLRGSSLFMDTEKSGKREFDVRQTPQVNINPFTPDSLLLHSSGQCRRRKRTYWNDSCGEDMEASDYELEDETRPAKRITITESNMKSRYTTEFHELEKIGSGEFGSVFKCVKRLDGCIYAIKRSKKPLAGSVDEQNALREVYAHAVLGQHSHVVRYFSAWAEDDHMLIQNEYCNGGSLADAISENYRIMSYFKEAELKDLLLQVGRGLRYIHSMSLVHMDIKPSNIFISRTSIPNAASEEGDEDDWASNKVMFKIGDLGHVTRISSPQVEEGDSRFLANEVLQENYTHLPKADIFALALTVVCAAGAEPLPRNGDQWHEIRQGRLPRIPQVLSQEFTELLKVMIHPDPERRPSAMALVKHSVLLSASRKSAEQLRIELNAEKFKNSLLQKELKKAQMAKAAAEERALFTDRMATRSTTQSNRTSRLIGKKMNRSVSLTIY
# Chain of Luciferin 4-monooxygenase (P08659 whole entry): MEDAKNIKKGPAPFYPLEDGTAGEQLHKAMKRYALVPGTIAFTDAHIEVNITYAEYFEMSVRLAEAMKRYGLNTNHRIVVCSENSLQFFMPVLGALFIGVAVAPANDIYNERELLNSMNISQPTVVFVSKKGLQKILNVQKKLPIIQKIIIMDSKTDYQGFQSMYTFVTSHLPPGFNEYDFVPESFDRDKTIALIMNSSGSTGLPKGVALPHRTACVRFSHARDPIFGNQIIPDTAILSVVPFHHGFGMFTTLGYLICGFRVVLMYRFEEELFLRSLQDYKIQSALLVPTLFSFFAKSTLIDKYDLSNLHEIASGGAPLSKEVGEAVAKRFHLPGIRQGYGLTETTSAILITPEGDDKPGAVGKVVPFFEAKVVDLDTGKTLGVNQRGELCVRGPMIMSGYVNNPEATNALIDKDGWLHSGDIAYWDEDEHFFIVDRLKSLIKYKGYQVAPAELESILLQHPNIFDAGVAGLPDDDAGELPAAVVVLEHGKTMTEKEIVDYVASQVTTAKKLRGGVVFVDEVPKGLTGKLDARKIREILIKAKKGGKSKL
# Chain of G2/mitotic-specific cyclin-B1 (P14635 whole entry): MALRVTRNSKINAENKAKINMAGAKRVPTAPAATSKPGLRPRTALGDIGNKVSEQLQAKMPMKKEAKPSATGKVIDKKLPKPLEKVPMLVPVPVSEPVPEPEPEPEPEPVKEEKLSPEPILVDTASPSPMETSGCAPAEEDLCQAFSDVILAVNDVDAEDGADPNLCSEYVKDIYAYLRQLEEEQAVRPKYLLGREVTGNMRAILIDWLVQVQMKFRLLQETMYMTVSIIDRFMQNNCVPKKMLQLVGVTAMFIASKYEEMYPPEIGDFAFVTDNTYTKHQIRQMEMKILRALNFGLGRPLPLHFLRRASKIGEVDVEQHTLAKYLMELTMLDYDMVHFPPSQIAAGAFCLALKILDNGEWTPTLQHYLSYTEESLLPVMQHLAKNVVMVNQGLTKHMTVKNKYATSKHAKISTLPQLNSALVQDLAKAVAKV
smiles,measurement,setting,value
[O-][n+]1onc2c3cc(-c4ccccc4)[nH]c3ccc21,CC50,[1],1.47 µM (active)
same,IC50,cells,0.67 µM (active)
same,CC50,[2],1.57 µM (active)
same,EC50,Wee1-like protein kinase,> 1.84 µM (active)
same,AC50,INS1,2.52 µM (active)
same,IC50,[3],1.59 µM (not active)
same,CC50,[4],1.27 µM (active)
same,EC50,[5],4.16 µM (active)
same,CC50,[6],2.6 µM (active)
same,EC50,[7],0.597 µM (active)
same,EC50,[8],0.65 µM (active)
same,EC50,[9],9.83 µM (active)
same,EC50,[10],> 49.7 µM (not active)
COC(=O)C1=C(CN2CCCc3ccccc32)NC(=O)NC1c1ccc(F)cc1 (stereo not given),EC50,HEK293 [11],> 8 µM (inactive)
same,EC50,[12],8.88 µM (active)
same,AC50,[13],2.16 µM (active)
same,IC50,[14],> 39.8 µM (not active)
same,EC50,[15],6.69 µM (inconclusive)
same,IC50,[16],> 80 µM (inactive)
same,EC50,[17],12.4 µM (active)
same,EC50,HEK293 [18],9.82 µM (not active)
same,EC50,[19],> 8 µM (not active)
COc1ccc2nc(NC(=O)CSc3nnc(C)n3N)sc2c1,EC50,[20],> 55.7 µM (not active)
same,EC50,[21],> 55.7 µM (not active)
CN(CCc1ccccc1)C(=O)c1cc(-c2ccco2)nc2ccccc12,IC50,[22],> 56.8 µM (inactive)
O=C(Nc1cccc([N+](=O)[O-])c1)c1cc2ccccc2cc1O,IC50,HEK293 [23],11.8 µM (active)
same,EC50,[24],> 35.4 µM (not active)
same,IC50,Tumor necrosis factor,2.2 µM (active)
same,IC50,[25],2.73 µM (active)
same,EC50,[26],> 35.4 µM (not active)
same,AC50,INS1,3.67 µM (active)
same,IC50,[27],1.48 µM (active)
same,CC50,Vero,3.95 µM (active)
same,EC50,HEK293 [28],> 35.4 µM (not active)
same,IC50,[29],2.72 µM (active)

# From ChEMBL document CHEMBL1201862, “PubChem BioAssay data set” (2004)
